Biological target: T1, TLR9 (Homo sapiens, UniProt Q9NR96)
T1 sequence (Q9NR96 26-1032): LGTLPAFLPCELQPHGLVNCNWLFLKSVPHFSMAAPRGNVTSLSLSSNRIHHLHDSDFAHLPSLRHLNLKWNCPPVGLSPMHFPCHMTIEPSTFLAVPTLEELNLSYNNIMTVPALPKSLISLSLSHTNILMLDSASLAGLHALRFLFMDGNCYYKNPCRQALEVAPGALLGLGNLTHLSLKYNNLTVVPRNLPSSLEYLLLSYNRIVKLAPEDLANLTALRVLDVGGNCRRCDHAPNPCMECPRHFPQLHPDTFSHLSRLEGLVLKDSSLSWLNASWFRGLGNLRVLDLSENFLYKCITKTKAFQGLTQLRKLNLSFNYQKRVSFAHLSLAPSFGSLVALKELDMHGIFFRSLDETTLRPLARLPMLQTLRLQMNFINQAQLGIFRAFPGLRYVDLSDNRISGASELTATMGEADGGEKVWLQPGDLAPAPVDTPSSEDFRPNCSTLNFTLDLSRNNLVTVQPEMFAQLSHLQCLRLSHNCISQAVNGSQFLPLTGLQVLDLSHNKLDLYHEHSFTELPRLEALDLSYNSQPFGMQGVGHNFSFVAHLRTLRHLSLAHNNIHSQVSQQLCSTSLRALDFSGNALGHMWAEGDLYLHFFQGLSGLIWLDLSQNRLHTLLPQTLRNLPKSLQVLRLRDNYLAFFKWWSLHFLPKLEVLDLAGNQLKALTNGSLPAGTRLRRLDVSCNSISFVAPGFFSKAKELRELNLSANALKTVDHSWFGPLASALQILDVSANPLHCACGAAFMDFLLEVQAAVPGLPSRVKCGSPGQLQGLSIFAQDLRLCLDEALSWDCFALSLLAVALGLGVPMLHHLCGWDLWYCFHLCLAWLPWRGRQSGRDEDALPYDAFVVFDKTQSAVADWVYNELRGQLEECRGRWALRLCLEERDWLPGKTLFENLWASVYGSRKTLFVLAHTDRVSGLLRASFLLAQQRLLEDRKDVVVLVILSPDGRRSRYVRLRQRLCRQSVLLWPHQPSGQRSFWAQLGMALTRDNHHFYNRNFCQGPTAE
Experiment: HEK293-Blue-hTLR-9 cells assay
Assay type: cell-based
Parameters: host or cells: HEK293 (HEK-Blue hTLR9)
Details: HEK293-Blue-hTLR9 cells, ODN2006 stimulation, 20 hrs, SEAP reporter; read-out: HEK/hTLR9 IC50
Text: A stable HEK293-Blue-hTLR-9 cell line was purchased from InvivoGen (Cat.#: hkb-htlr9, San Diego, California, USA). These cells were originally designed for studying the stimulation of human TLR9 by monitoring the activation of NF-κB. A SEAP (secreted embryonic alkaline phosphatase) reporter gene was placed under the control of the IFN-β minimal promoter fused to five NF-κB and AP-1-binding sites. The SEAP was induced by activating NF-κB and AP-1 via stimulating HEK-Blue hTLR9 cells with TLR9 ligands. Therefore the reporter expression was declined by TLR9 antagonist under the stimulation of a ligand, such as ODN2006 (Cat.#: tlrl-2006-1, Invivogen, San Diego, California, USA), for incubation of 20 hrs. The cell culture supernatant SEAP reporter activity was determined using QUANTI-Blue™ kit (Cat.#: rep-qb1, Invivogen, San Diego, California, USA) at a wavelength of 640 nm, a detection medium that turns purple or blue in the presence of alkaline phosphatase.
HEK293-Blue-hTLR9 cells were incubated at a density of 250,000~450,000 cells/mL in a volume of 170 µL in a 96-well plate in Dulbecco’s Modified Eagle’s medium (DMEM) containing 4.5 g/L glucose, 50 U/mL penicillin, […], […], 2 mM L-glutamine, 10% (v/v) heat-inactivated fetal bovine serum with addition of 20 µL test compound in a serial dilution in the presence of final DMSO at 1% and 10 µL of 20uM ODN2006 in above DMEM, perform incubation under 37° C. in a CO2 incubator for 20 hrs. Then 20 µL of the supernatant from each well was incubated with 180 µL Quanti-blue substrate solution at 37° C. for 2 h and the absorbance was read at 620 \~655 nm using a spectrophotometer. The signaling pathway that TLR9 activation leads to downstream NF-κB activation has been widely accepted, and therefore similar reporter assay was modified for evaluating TLR9 antagonist.

IC50 [µM]	Structure (SMILES)
0.7	CCc1nc(N2CCN(Cc3cnc(N4CC5(CNCCO5)C4)nc3)CC2)ccc1-c1cc(C)c(=O)n(C)c1 [Example 1, 5-[2-ethyl-6-[4-[[2-(5-oxa-2,8-diazaspiro[3.5]nonan-2-yl)pyrimidin-5-yl]methyl]piperazin-1-yl]-3-pyridyl]-1,3-dimethyl-pyridin-2-one]
0.621	CCc1nc(N2CCN(Cc3cnc(N4CC(C)(N)C4)nc3)CC2)ccc1-c1cc(C)c(=O)n(C)c1 [Example 3, 5-[6-[4-[[2-(3-amino-3-methyl-azetidin-1-yl)pyrimidin-5-yl]methyl]piperazin-1-yl]-2-ethyl-3-pyridyl]-1,3-dimethyl-pyridin-2-one]
0.198	Cc1cc(-c2ccc(N3CCN(Cc4cnc(N5CC6(CNCCO6)C5)nc4)CC3)nc2C(C)C)cn(C)c1=O [Example 6, 5-[2-isopropyl-6-[4-[[2-(5-oxa-2,8-diazaspiro[3.5]nonan-2-yl)pyrimidin-5-yl]methyl]piperazin-1-yl]-3-pyridyl]-1,3-dimethyl-pyridin-2-one]
0.183	Cc1cc(-c2ccc(N3CCN(Cc4cnc(N5CCNCC5)nc4)CC3)nc2C(C)C)cn(C)c1=O [Example 9, 5-[2-isopropyl-6-[4-[(2-piperazin-1-ylpyrimidin-5-yl)methyl]piperazin-1-yl]-3-pyridyl]-1,3-dimethyl-pyridin-2-one]
0.139	Cc1cc(-c2ccc(N3CCN(Cc4cnc(N5CC(C)(N)C5)nc4)CC3)nc2C(C)C)cn(C)c1=O [Example 10, 5-[6-[4-[[2-(3-amino-3-methyl-azetidin-1-yl)pyrimidin-5-yl]methyl]piperazin-1-yl]-2-isopropyl-3-pyridyl]-1,3-dimethyl-pyridin-2-one]
0.136	Cc1cc(-c2ccc(N3CCN(Cc4ccc(N5CCNCC5)nc4)CC3)nc2C(C)C)cn(C)c1=O [Example 11, 5-[2-isopropyl-6-[4-[(6-piperazin-1-yl-3-pyridyl)methyl]piperazin-1-yl]-3-pyridyl]-1,3-dimethyl-pyridin-2-one]
0.763	Cc1cc(-c2ccc(N3CCN(Cc4ncc(N5CCNCC5)cn4)CC3)nc2C(C)C)cn(C)c1=O [Example 12, 5-[2-isopropyl-6-[4-[(5-piperazin-1-ylpyrimidin-2-yl)methyl]piperazin-1-yl]-3-pyridyl]-1,3-dimethyl-pyridin-2-one]

The remaining lines, values behind:

Structure (SMILES)	IC50 [µM]
CCc1nc(N2CCN(Cc3ccc(N4CC5(CNCCO5)C4)nc3)CC2)ccc1-c1cc(C)c(=O)n(C)c1 [Example 2, 5-[2-ethyl-6-[4-[[6-(5-oxa-2,8-diazaspiro[3.5]nonan-2-yl)-3 pyridyl]methyl]piperazin-1-yl]-3-pyridyl]-1,3-dimethyl-pyridin-2-one]	0.212
CCc1nc(N2CCN(Cc3cnc(N4CCOC[C@@H](N)C4)nc3)CC2)ccc1-c1cc(C)c(=O)n(C)c1 [Example 4, 5-[6-[4-[[2-[(6S)-6-amino-1,4-oxazepan-4-yl]pyrimidin-5-yl]methyl]piperazin-1-yl]-2-ethyl-3-pyridyl]-1,3-dimethyl-pyridin-2-one]	0.318
CCc1nc(N2CCN(Cc3ccc(N4CCNCC4)cc3)CC2)ccc1-c1cc(C)c(=O)n(C)c1 [Example 5, 5-[2-ethyl-6-[4-[(4-piperazin-1-ylphenyl)methyl]piperazin-1-yl]-3-pyridyl]-1,3-dimethyl-pyridin-2-one]	0.054
Cc1cc(-c2ccc(N3CCN(Cc4ccc(N5CCNCC5)cn4)CC3)nc2C(C)C)cn(C)c1=O [Example 7, 5-[2-isopropyl-6-[4-[(5-piperazin-1-yl-2-pyridyl)methyl]piperazin-1-yl]-3-pyridyl]-1,3-dimethyl-pyridin-2-one]	0.143
Cc1cc(-c2ccc(N3CCN(Cc4cnc(N5CCNCC5)cn4)CC3)nc2C(C)C)cn(C)c1=O [Example 8, 5-[2-isopropyl-6-[4-[(5-piperazin-1-ylpyrazin-2-yl)methyl]piperazin-1-yl]-3-pyridyl]-1,3-dimethyl-pyridin-2-one]	0.176
Cc1cc(-c2ccc(N3CCN(Cc4ccc(N5CCNCC5)cc4)CC3)nc2C(C)C)cn(C)c1=O [Example 13, 5-[2-isopropyl-6-[4-[(4-piperazin-1-ylphenyl)methyl]piperazin-1-yl]-3-pyridyl]-1,3-dimethyl-pyridin-2-one]	0.111
Cc1cc(-c2ccc(N3CCN(Cc4cccc(N5CCNCC5)c4)CC3)nc2C(C)C)cn(C)c1=O [Example 14, 5-[2-isopropyl-6-[4-[(3-piperazin-1-ylphenyl)methyl]piperazin-1-yl]-3-pyridyl]-1,3-dimethyl-pyridin-2-one]	0.143
Cc1cc(-c2ccc(N3CCN(c4ccc5c(n4)CCNC5)CC3)nc2C(C)C)cn(C)c1=O [Example 15, 5-[2-isopropyl-6-[4-(5,6,7,8-tetrahydro-1,6-naphthyridin-2-yl)piperazin-1-yl]-3-pyridyl]-1,3-dimethyl-pyridin-2-one]	0.803
Cc1cc(-c2ccc(N3CCN4CCN(c5ccc(N6CCNCC6)nc5)CC4C3)nc2C(C)C)cn(C)c1=O (stereo not shown) [Example 16, 5-[2-isopropyl-6-[8-(6-piperazin-1-yl-3-pyridyl)-3,4,6,7,9,9a-hexahydro-1H-pyrazino[1,2-a]pyrazin-2-yl]-3-pyridyl]-1,3-dimethyl-pyridin-2-one]	0.324
Cc1cc(-c2ccc(N3CCN(Cc4ccc(N5CCNCC5)cc4)CC3)nc2C(F)F)cn(C)c1=O [Example 17, 5-[2-(difluoromethyl)-6-[4-[(4-piperazin-1-ylphenyl)methyl]piperazin-1-yl]-3-pyridyl]-1,3-dimethyl-pyridin-2-one]	0.068
Cc1cc(-c2ccc(N3CCC(N4CCNCC4)CC3)nc2C(C)C)cn(C)c1=O [Example 18, 5-[2-isopropyl-6-(4-piperazin-1-yl-1-piperidyl)-3-pyridyl]-1,3-dimethyl-pyridin-2-one]	0.798
CCc1nc(N2CCN3CCN(c4cnc(N5CC6(CNCCO6)C5)nc4)CC3C2)ccc1-c1cc(C)c(=O)n(C)c1 (stereo not shown) [Example 19, 5-[2-ethyl-6-[2-[2-(5-oxa-2,8-diazaspiro[3.5]nonan-2-yl)pyrimidin-5-yl]-3,4,6,7,9,9a-hexahydro-1H-pyrazino[1,2-a]pyrazin-8-yl]-3-pyridyl]-1,3-dimethyl-pyridin-2-one]	0.833
